Molecule `CC(=CC(=O)O)c1ccc(C(F)(F)F)cc1` returned a melting point of 122 to 124 °C.

In turn, `COCCOc1ccc(C(F)(F)F)cc1NC(=O)C(C)Cl` (stereo unspecified) showed a melting point of 59 to 61 °C.

`NNC(=O)NCc1ccco1` returned a melting point of 88 to 90 °C.

On to `CCOc1ccc(NC(=O)CO)cc1`, for which the melting point was in the range of 150 to 152 °C.

Consider `c1n[nH]c2c1CCNC2`, for which the melting point was 134 to 136 °C.

The molecule `CSc1cc(C(=O)O)ccn1` had a melting point of 218 to 220 °C.

In turn, `O=C(O)CCSCc1ccccn1` yielded a melting point of 74 to 76 °C.

Consider `O=C(O)CCC(=O)c1ccc2c(c1)-c1ccccc1C2`, for which the melting point fell in the range of 189 to 191 °C.

Turning to `NNC(=O)CN1CCCc2ccccc21`, the melting point fell in the range of 107 to 109 °C.

`CCc1nc(N)[nH]c(=S)n1` showed a melting point of 239 to 241 °C.

The molecule `COC(=O)c1cc2ccc(OCc3ccccc3)cc2[nH]1` had a melting point of 136 to 138 °C.

Molecule `CC1CSc2ccc(Br)cc2C1=O` (stereo unspecified) showed a melting point of 65 to 67 °C.

Molecule `CC(C)C(Br)C(=O)Nc1cc(Cl)ccc1Cl` (stereo unspecified) came in with a melting point of 126 to 128 °C.

`NCC(O)c1ccccc1C(F)(F)F` (stereo unspecified) gave a melting point of 106 to 108 °C.

`NC(=O)c1ccc(OC(F)F)cc1` gave a melting point of 130 to 132 °C.

For `CC1CCCC(NC(=O)OC(C)(C)C)(C(=O)O)C1` (stereo unspecified), the melting point lay within 149 to 151 °C.

`CC(Cl)c1nnc(-c2cccs2)o1` (stereo unspecified) gave a melting point of 211 to 213 °C.

In the case of `O=C(CCl)Nc1ccccc1Sc1ccccc1`, the melting point is 159 to 161 °C.

In the case of `Cc1cc(C(=O)NC2CCCC2)ccc1N`, the melting point is 146 to 148 °C.

`O=C1CCc2c(Cl)cc(Br)cc21` registered a melting point of 124 to 126 °C.

As for `COc1ccc(C(=O)Nc2ccc(C(=O)O)s2)cc1`, the melting point was 198 to 200 °C.

On to `Cc1cn2c(=O)c(C(=O)O)cnc2s1`, for which the melting point lay within 239 to 241 °C.

The molecule `CCC1(C)NC(=O)NC1=O` (stereo unspecified) gave a melting point of 144 to 150 °C.

`O=C(O)c1cccc(-n2nccc2C(F)(F)F)c1` returned a melting point of 158 to 160 °C.

As to `C=CCn1c(C)nnc1S`, the melting point is 264 to 266 °C.

The molecule `CS(=O)(=O)NCCc1ccc(C(=O)CCl)s1` registered a melting point of 110 to 112 °C.

Consider `NC(=O)Nc1cc(Cl)ccc1C(=O)O`, for which the melting point lay in the range of 185 to 187 °C.

`O=C(O)c1cccc(Cl)c1O` gave a melting point of 173 to 175 °C.

`NNc1ccc(C(F)(F)F)cn1` yielded a melting point of 61 to 63 °C.

As for `CC(C)NC(=S)N(C)C`, the melting point was in the range of 73 to 75 °C.

The molecule `CSc1ccc(C(=O)CCl)cc1NC(C)=O` returned a melting point of 98 to 102 °C.

In turn, `O=C(c1cccnc1)c1ccc(F)cc1F` came in with a melting point of 54 to 56 °C.

Molecule `COc1cc(S(N)(=O)=O)ccc1N` yielded a melting point of 142 to 144 °C.

Molecule `O=C(N/N=C/c1c(O)ccc2ccccc12)c1ccncc1` had a melting point of 266 to 268 °C.

Molecule `COc1cc(OC)c(N)c(C(=O)O)c1` yielded a melting point of 189 to 191 °C.

Turning to `CC(=O)c1ccc(N)cc1C`, the melting point fell in the range of 83 to 85 °C.

Molecule `Cc1ccc(C)n1-c1ccc(C(=O)O)cc1` came in with a melting point of 213 to 215 °C.

Turning to `Cn1ccnc1Sc1ccc(C=O)cc1[N+](=O)[O-]`, the melting point fell in the range of 173 to 175 °C.

`O=C(O)C1CSC2(c3ccccc3)CCC(=O)N12` (stereo unspecified): the melting point lay within 173 to 175 °C.

Turning to `O=C(O)CNC(=O)c1ccccc1Br`, the melting point was in the range of 138 to 140 °C.

For the molecule `CC(CC(=O)O)(CC(=O)O)c1ccccc1`, the melting point was 136 to 138 °C.

The molecule `Cc1ccc(NC(N)=O)c(C)c1` yielded a melting point of 215 to 217 °C.

Molecule `CCOC(=O)c1c(C)[nH]c(C(=O)O)c1C` registered a melting point of 204 to 206 °C.

For `COc1ccc2c(c1)C=C(C(=O)O)CO2`, the melting point is 184 to 186 °C.

Take `COc1ccc(N)cc1S(=O)(=O)N1CCOCC1`: the melting point lay in the range of 131 to 133 °C.

Molecule `COc1c(OC(F)F)ccc(C=O)c1[N+](=O)[O-]` had a melting point of 61 to 63 °C.

Molecule `CS(=O)(=O)CC1(CBr)CC1` came in with a melting point of 50 to 52 °C.

For `O=C(O)Cc1ccc([N+](=O)[O-])cc1F`, the melting point lay in the range of 162 to 164 °C.

On to `Cc1ccc2ncc(C(=O)O)n2c1`, for which the melting point lay within 177 to 179 °C.

Molecule `Cc1cccc(C(C)C(=O)O)c1` (stereo unspecified) registered a melting point of 61 to 63 °C.

In turn, `Nc1nc(-c2ccc3ccccc3c2)n[nH]1` returned a melting point of 205 to 207 °C.

`NC(=O)C1CC(C(=O)O)=NN1c1ccccc1` (stereo unspecified) had a melting point of 209 to 211 °C.

Take `NS(=O)(=O)C=Cc1cccc(Br)c1`: the melting point lay in the range of 153 to 155 °C.

For `Cc1ccc(-n2cc(C(=O)O)nn2)cc1`, the melting point fell in the range of 160 to 162 °C.

Molecule `N#Cc1cc([N+](=O)[O-])cnc1O` registered a melting point of 259 to 261 °C.

Molecule `O=C(O)/C=C/c1cc(C(F)(F)F)ccc1Cl` registered a melting point of 147 to 149 °C.

Molecule `CC(Cl)c1nc2cc(Cl)ccc2n1Cc1ccccc1` (stereo unspecified) had a melting point of 110 to 112 °C.

For the molecule `NC(=O)c1ccsc1NC(=O)CCC(=O)O`, the melting point fell in the range of 243 to 245 °C.

With `CC(C)Oc1ccc(S(=O)(=O)N2CCCCC2)cc1NC(=O)CCl`, the melting point is 270 to 272 °C.

Take `O=C(O)c1ccc(C2CC2)s1`: the melting point lay in the range of 111 to 113 °C.

In the case of `COCc1cc(O)ncn1`, the melting point was in the range of 159 to 161 °C.

In the case of `C=CCNC(=S)N1CCOCC1`, the melting point fell in the range of 61 to 63 °C.

Take `Cc1nn(C(C)C)c(C)c1NC(=O)OCC(F)(F)F`: the melting point lay in the range of 185 to 187 °C.

Take `CC(C)(C)OC(=O)NC1CCCC(C(=O)O)C1` (stereo unspecified): the melting point lay within 126 to 128 °C.

The molecule `O=C(O)c1ccnc(Br)c1[N+](=O)[O-]` came in with a melting point of 220 to 222 °C.

In the case of `O=C(CCl)N1CCN(S(=O)(=O)c2ccc(F)c(Cl)c2)CC1`, the melting point lay in the range of 121 to 123 °C.

In turn, `Nc1sc2c(c1C(=O)c1ccc(C(F)(F)F)cc1)CCC2` showed a melting point of 200 to 202 °C.

`Cc1ccc(-c2ccc(C(=O)O)c(F)c2)cc1C` came in with a melting point of 213 to 215 °C.

In turn, `Cc1csc(Nc2ccccc2)n1` showed a melting point of 74 to 76 °C.

In turn, `COC(=O)C(C)(N)C(c1ccccc1)c1ccccc1` (stereo unspecified) gave a melting point of 68 to 70 °C.

For the molecule `O=C(O)c1cc([N+](=O)[O-])c(F)cc1I`, the melting point fell in the range of 158 to 160 °C.

Take `CN(Cc1c(F)cccc1Cl)C(=O)CCl`: the melting point lay in the range of 54 to 56 °C.

`Cc1ccn2c(CN3CCNCC3)c(C)nc2c1` registered a melting point of 97 to 99 °C.

In turn, `COC(=O)c1oc(Br)cc1C` came in with a melting point of 62 to 64 °C.

Regarding `CNC(=O)c1cc(Oc2ccccc2N)ccn1`, the melting point fell in the range of 115 to 117 °C.

As for `Cc1ccc(-c2nn(Cc3ccccc3)cc2/C=C/C(=O)O)cc1`, the melting point is 107 to 109 °C.

`Cc1nn(-c2ccc(Cl)cc2)cc1C=O`: the melting point was in the range of 121 to 123 °C.

Molecule `Cc1ccsc1C1CC1C(=O)O` (stereo unspecified) registered a melting point of 58 to 60 °C.

The molecule `O=C(CCl)N1CCCC1` gave a melting point of 56 to 58 °C.

Molecule `O=S(=O)(Cl)c1c(Cl)ccc2c(Cl)ccnc12` showed a melting point of 155 to 157 °C.

For the molecule `CC(CO)N1Cc2cccc(N)c2C1` (stereo unspecified), the melting point was 129 to 131 °C.

Turning to `O=C(Nc1ccccc1F)Nc1cccc2c1CCCN2`, the melting point lay in the range of 204 to 206 °C.

With `Cc1ccc(C#N)cc1N`, the melting point fell in the range of 76 to 78 °C.

As to `CCn1c(N)c(-c2csc(C)n2)c(=O)[nH]c1=O`, the melting point lay in the range of 250 to 252 °C.

The molecule `O=C1CC(C(F)F)=NN1` displayed a melting point of 149 to 151 °C.

In the case of `CON(C)S(=O)(=O)c1cc([N+](=O)[O-])ccc1Cl`, the melting point lay within 123 to 125 °C.

In the case of `C=CCC(NC(=O)OCc1ccccc1)c1ccccc1` (stereo unspecified), the melting point lay within 65 to 67 °C.

With `Cc1nnc(CO)n1C`, the melting point fell in the range of 155 to 157 °C.

The molecule `Cc1nc(CCC(=O)O)oc1-c1ccccc1` returned a melting point of 162 to 164 °C.

The molecule `O=C(O)C1(S(=O)(=O)c2ccc(Br)cc2)CCCC1` showed a melting point of 138 to 140 °C.

With `Cc1cc(C)c(S(N)(=O)=O)cc1C`, the melting point fell in the range of 179 to 181 °C.

As for `O=C(O)CCNS(=O)(=O)c1ccc([N+](=O)[O-])cc1`, the melting point fell in the range of 150 to 152 °C.

With `Cc1ccc(-c2noc(CCC(=O)O)n2)cc1F`, the melting point was in the range of 142 to 144 °C.

Regarding `CC(C)c1nnc(N)[nH]1`, the melting point lay in the range of 108 to 110 °C.

Regarding `Cc1nc2scc(-c3ccccc3)c2c(=O)n1N`, the melting point is 134 to 136 °C.

`COc1ccc(-c2nc3c(s2)C(=O)CCC3)cc1` yielded a melting point of 112 to 114 °C.

The molecule `Fc1ccc(-n2nccc2Br)cc1` registered a melting point of 73 to 75 °C.

Take `O=C(O)c1cnc2c(c1)c(C1CC1)nn2-c1ccccc1`: the melting point lay in the range of 250 to 252 °C.

Consider `CNS(=O)(=O)c1ccc(C(=O)O)o1`, for which the melting point was in the range of 164 to 166 °C.

The molecule `CC(C)N1CCC(C(=O)O)CC1` registered a melting point of 168 to 170 °C.

For the molecule `CN1CCC(O)(c2ccccc2)CC1`, the melting point lay within 111 to 113 °C.

Turning to `CC(C)(C)OC(=O)NCCNC(=O)C1CCCNC1` (stereo unspecified), the melting point was 130 to 132 °C.

On to `NCCNS(=O)(=O)c1cc(Br)ccc1Br`, for which the melting point is 170 to 172 °C.

Molecule `Cc1noc(COc2ccc(O)cc2)n1` displayed a melting point of 62 to 64 °C.

With `CC(C)Oc1ccc(/C=C/C(=O)O)cc1`, the melting point fell in the range of 156 to 158 °C.

`O=c1cc(CO)nc2sccn12` returned a melting point of 193 to 195 °C.

`CC(=O)Nc1cccc(F)c1C(=O)O` showed a melting point of 202 to 204 °C.

In the case of `O=C(CCl)Nc1cccc(C(=O)N2CCSCC2)c1`, the melting point lay in the range of 152 to 154 °C.

Regarding `N#CCc1nc2scc(-c3ccccc3)c2c(=O)[nH]1`, the melting point lay within 279 to 281 °C.

On to `Cc1ccc(S(=O)(=O)NC(CCl)c2ccccc2)cc1` (stereo unspecified), for which the melting point is 174 to 176 °C.

For `CC(O)(c1ccc(O)cc1)C(F)(F)F` (stereo unspecified), the melting point was in the range of 118 to 120 °C.

In the case of `Cc1ccc(Oc2ccc3[nH]c(C)c(C)c(=O)c3c2)cc1`, the melting point was 284 to 286 °C.

Consider `Oc1cccc2c1NCCC2`, for which the melting point is 116 to 118 °C.

The molecule `CNS(=O)(=O)c1ccc(CCC(=O)O)cc1` had a melting point of 188 to 190 °C.

In turn, `CC(=O)c1cccc(S(=O)(=O)N(C)C)c1` had a melting point of 74 to 76 °C.

For `Nc1cc(F)ccc1OCC1CCCO1` (stereo unspecified), the melting point lay in the range of 87 to 89 °C.

`CC(C)(C)CNc1cccnc1`: the melting point lay within 62 to 64 °C.

On to `NNc1ccc(S(=O)(=O)N2CCCC2)cn1`, for which the melting point was in the range of 164 to 166 °C.

For `CC(CC(=O)O)c1ccncc1` (stereo unspecified), the melting point is 171 to 173 °C.

`Nc1cccc(S(=O)(=O)N2CCCCCC2)c1` had a melting point of 73 to 77 °C.

In the case of `CC(=O)COc1ccc2cc(Br)ccc2c1`, the melting point was in the range of 106 to 108 °C.

As usually defined, the melting point is the temperature, or range, at which the solid turns liquid.
